Data on ten compounds can be found in ChEMBL document CHEMBL4138230, “New estrogen receptor antagonists. 3,20-Dihydroxy-19-norpregna-1,3,5(10)-trienes: Synthesis, molecular modeling, and biological evaluation” (Eur J Med Chem, 2018).

The subject of data set [1] is MCF7. Kind of data set: Growth inhibition of human MCF7 cells at <25 uM after 72 hrs by MTT assay relative to control. It counts as functional. Background: Tetrazolium dyes change colour on reduction, which living cells bring about.
Data set [2] is described as follows: Growth inhibition of human MCF10A cells at <25 uM after 72 hrs by MTT assay relative to control. It counts as cell-based, MCF-10A. Conditions: read-out: GI.
For data set [3], the target named is T1, Estrogen receptor (Homo sapiens) (UniProt P03372).
T1 sequence (whole entry): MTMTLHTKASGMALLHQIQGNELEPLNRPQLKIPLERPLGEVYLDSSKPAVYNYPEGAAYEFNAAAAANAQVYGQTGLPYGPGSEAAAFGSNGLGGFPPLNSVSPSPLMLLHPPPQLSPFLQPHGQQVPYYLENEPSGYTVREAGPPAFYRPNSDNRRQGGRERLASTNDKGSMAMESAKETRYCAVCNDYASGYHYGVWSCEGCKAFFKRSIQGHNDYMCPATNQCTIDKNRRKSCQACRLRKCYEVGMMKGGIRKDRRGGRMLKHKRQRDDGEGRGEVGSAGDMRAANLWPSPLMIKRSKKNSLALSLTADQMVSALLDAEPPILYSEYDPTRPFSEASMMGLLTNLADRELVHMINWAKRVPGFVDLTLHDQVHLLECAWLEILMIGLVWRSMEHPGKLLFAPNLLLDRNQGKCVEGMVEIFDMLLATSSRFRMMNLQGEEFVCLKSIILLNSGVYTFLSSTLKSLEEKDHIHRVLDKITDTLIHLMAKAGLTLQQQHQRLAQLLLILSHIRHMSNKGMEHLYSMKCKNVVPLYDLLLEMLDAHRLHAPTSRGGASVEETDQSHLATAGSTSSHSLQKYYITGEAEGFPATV
Kind of data set: Antagonist activity at ERalpha in human MCF7 cells at 5 uM after 24 hrs by luciferase reporter gene assay relative to control. It counts as cell-based.

For data set [4], the system named is MCF-10A. The data set is described as follows: Growth inhibition of human MCF10A cells after 72 hrs by MTT assay. The class given is cell-based.
The test system of data set [5] is MCF7. Kind of data set: cells. As to conditions: Homo sapiens, MCF7, 72 h.
Description: Growth inhibition of human MCF7 cells after 72 hrs by MTT assay

One may read the IC50 as the concentration that inhibits the measured activity by half. A low value points to greater potency.

Activity calls are given as the source filed them. The rule behind the calls is not given here.

`COc1ccc2c(c1)CC[C@@H]1[C@@H]2CC[C@@]2(C)[C@H]1C[C@H]1CCCC[C@]12C(C)=O`: the “growth inhibition (GI)” value in data set [1] is on record as less than 50%. Besides, in data set [2], the inhibition at 72 h is less than 50%. In addition, the inhibition entry in data set [3] is “inactive”.

As for `C[C@H](O)[C@@]12CCCC[C@@H]1C[C@H]1[C@@H]3CCc4cc(O)ccc4[C@H]3CC[C@@]12C`, the inhibition result in data set [3] was “Active”. Further, the IC50 amounted to 23 µM in data set [4] and 4.6 µM in data set [5].

Take `C[C@@H](O)[C@H]1CC[C@H]2[C@@H]3CCc4cc(O)ccc4[C@H]3CC[C@]12C`: the inhibition entry in data set [3] was “Active”. For the same compound, the figures for the half-maximal inhibitory concentration (IC50) in data set [4] and in data set [5] were 5.9 µM and 0.15 µM, respectively.

Take `CC(O)[C@@]12C[C@@H]1C[C@H]1[C@@H]3CCc4cc(O)ccc4[C@H]3CC[C@@]12C` (mixture of isomers): the inhibition entry in data set [3] is “Active”. Moreover, the IC50 came to 3.1 µM in data set [4] and 0.21 µM in data set [5].

`COc1ccc2c(c1)CC[C@@H]1[C@@H]2CC[C@@]2(C)[C@H]1C[C@H]1CCCC[C@]12C(C)O` (mixture of isomers): in data set [3], the inhibition entry was “inactive”.

Consider `CC(O)C1=CC[C@H]2[C@@H]3CCc4cc(O)ccc4[C@H]3CC[C@]12C` (mixture of isomers), for which, in data set [3], the inhibition entry was “inactive”. Moreover, the figures for the IC50 in data set [4] and in data set [5] were 19.1 µM and 4.6 µM, respectively.

As to `CC(=O)[C@@]12CCCC[C@@H]1C[C@H]1[C@@H]3CCc4cc(O)ccc4[C@H]3CC[C@@]12C`, the inhibition at 72 h in data set [2] is less than 50%. The inhibition entry in data set [3] was “Active”. This compound came in with an IC50 in data set [5] of 15.8 µM.

In the case of `CC(=O)[C@H]1CC[C@H]2[C@@H]3CCc4cc(O)ccc4[C@H]3CC[C@]12C`, the “growth inhibition (GI)” value in data set [1] was less than 50%. Moreover, the inhibition at 72 h in data set [2] is less than 50%. Also, the inhibition result in data set [3] was “inactive”.

`C[C@@H](O)[C@@]12CCCC[C@@H]1C[C@H]1[C@@H]3CCc4cc(O)ccc4[C@H]3CC[C@@]12C`: the inhibition at 72 h in data set [2] is less than 50%. For the same compound, the inhibition in data set [3] turned out to be 70%. The same compound showed a half-maximal inhibitory concentration (IC50) in data set [5] of 6.8 µM.

Take `CC/C(=C(\c1ccccc1)c1ccc(OCCN(C)C)cc1)c1ccccc1` [TAMOXIFEN]: the inhibition at 72 h in data set [2] is less than 50%. Moreover, in data set [5], the IC50 came to 5.3 µM.
